Data set [1] concerns Pseudomonas aeruginosa. Nature of the data set: Antimicrobial activity against clinical isolate CF333-2007 Pseudomonas aeruginosa DK2 measured after 18 hrs by microbroth dilution assay. In kind it is functional. Background: Broth dilution looks for growth in wells or tubes with falling amounts of substance.
A short description of data set [2]: Acute toxicity in ICR mouse assessed as effect on lungs at 50 mg/kg, ip administered as single dose measured after 7 days. In kind it is organism-based, Lung. The settings on record: in vivo, 168 h, time 7 day.
The nature of data set [3]: Acute toxicity in ICR mouse assessed as mortality at 50 mg/kg, ip administered as single dose measured after 2 hrs. Particulars: in vivo, read-out: Activity. It is filed as organism-based.
Data set [4] deals with Pseudomonas aeruginosa. Put plainly: Synergistic inhibition of PA3552-lux expression in Pseudomonas aeruginosa DK2 at 1 ug/ml measured after 5 to 8 hrs in presence of polymyxin B by microplate reader assay. It is filed as functional, organism-based. The settings on record: dose 1.0 µg/ml, time 5-8 hrs.
Data set [5] relates to Pseudomonas aeruginosa. Nature of the data set: Antibacterial activity against Pseudomonas aeruginosa DK2 assessed as reduction in bacterial growth at 4 ug/ml measured after 24 hrs in presence […] of polymyxin B by time kill assay. In kind it is functional. Particulars: dose 4 µg/ml.
The nature of data set [6]: Acute toxicity in ICR mouse assessed as effect on heart at 50 mg/kg, ip administered as single dose measured after 7 days. It is filed as organism-based. Particulars: in vivo, 168 h, time 7 day.
In data set [7] the test system is Escherichia coli. Put plainly: Synergistic antibacterial activity against Escherichia coli 15017 assessed as polymyxin MIC at 8 ug/ml. In kind it is functional. Particulars: dose 8 µg/ml.
Data set [8] has as its system Pseudomonas aeruginosa. Nature of the data set: Antimicrobial activity against clinical isolate CF333-2007 Pseudomonas aeruginosa DK2 assessed as polymyxin B MIC measured after 18 hrs by microbroth dilution assay. It is filed as functional.
A short description of data set [9]: Acute toxicity in ICR mouse assessed as mortality at 50 mg/kg, ip administered as single dose. In kind it is organism-based. Particulars: in vivo.
Data set [10] deals with Pseudomonas aeruginosa. Nature of the data set: Synergistic antibacterial activity against Pseudomonas aeruginosa PAO1 infected in Caenorhabditis elegans N2 worms assessed as worms survival at 4 to 8 ug/ml in presence of polymyxin B. In kind it is functional. The settings on record: dose 4-8 µg/ml; at 4 to 8 µg/mL.
Data set [11] in a line: Acute toxicity in ICR mouse assessed as effect on liver at 50 mg/kg, ip administered as single dose measured after 7 days. It is filed as organism-based. Particulars: in vivo, 168 h, time 7 day.
In another data set the test system is Acinetobacter baumannii. Put plainly: Synergistic antibacterial activity against Acinetobacter baumannii 186 assessed as fold decrease in polymyxin MIC at 8 ug/ml. It is filed as functional. Particulars: dose 8 µg/ml.
In data set [12] the test system is Pseudomonas aeruginosa. Nature of the data set: Antibacterial activity against Pseudomonas aeruginosa PAO1 infected in Caenorhabditis elegans N2 worms assessed as colonization of bacteria on intestinal tract at 8 ug/ml in presence of polymyxin B. It is filed as functional, organism-based. The settings on record: dose 8.0 µg/ml.
Data set [13] deals with Pseudomonas aeruginosa. Put plainly: Antibacterial activity against Pseudomonas aeruginosa PAO1 assessed as reduction in bacterial growth at 2 ug/ml measured after 24 hrs in presence of polymyxin B by time kill assay. In kind it is functional. The settings on record: dose 2 µg/ml.
Data set [14] relates to Klebsiella pneumoniae. Put plainly: Synergistic antibacterial activity against Klebsiella pneumoniae 674 assessed as fold decrease in polymyxin MIC at 8 ug/ml. It is filed as functional. Particulars: dose 8 µg/ml.
For data set [15], the system named is Pseudomonas aeruginosa. Put plainly: Suppression of polymyxin drug resistance development against pseudomonas aeruginosa DK2 at 4 ug/ml in presence of polymyxin B after repeated passaging for 14 days. It is filed as functional. Particulars: dose 4 µg/ml; time 14 day.
Data set [16] can be described thus: Acute toxicity in ICR mouse assessed as effect on spleen at 50 mg/kg, ip administered as single dose measured after 7 days. In kind it is organism-based. Particulars: in vivo, 168 h, time 7 day.
Data set [17] is described as follows: Acute toxicity in ICR mouse assessed as effect on kidney at 50 mg/kg, ip administered as single dose measured after 7 days. In kind it is organism-based. Particulars: in vivo, 168 h, time 7 day.
Data set [18] relates to Pseudomonas aeruginosa. Nature of the data set: Synergistic antibacterial activity against clinical isolate CF333-2007 Pseudomonas aeruginosa DK2 assessed as fractional inhibitory concentration index incubated for 18 hrs in presence of Polymyxin B. In kind it is functional.
Data set [19] has as its system Pseudomonas aeruginosa. Put plainly: Antimicrobial activity against clinical isolate CF333-2007 Pseudomonas aeruginosa DK2 measured after 18 hrs in presence of polymyxin B by microbroth dilution assay. In kind it is functional.
The test system of data set [20] is Klebsiella pneumoniae. Nature of the data set: Synergistic antibacterial activity against Klebsiella pneumoniae 674 assessed as polymyxin MIC at 8 ug/ml. The settings on record: dose 8 µg/ml. It is filed as functional.
The nature of data set [21]: Acute toxicity in ICR mouse assessed as effect on body weight at 50 mg/kg, ip administered as single dose measured daily for 7 days. It is filed as organism-based. Particulars: in vivo, 168 h, time 7 day.
Data set [22] deals with Pseudomonas aeruginosa. Nature of the data set: Inhibition of PA3552-lux expression in Pseudomonas aeruginosa DK2 at 1 ug/ml measured after 5 to 8 hrs by microplate reader assay. In kind it is functional. Particulars: dose 1.0 µg/ml, time 5-8 hrs.
Data set [23] concerns Escherichia coli. Nature of the data set: Synergistic antibacterial activity against Escherichia coli 15017 assessed as fold decrease in polymyxin MIC at 8 ug/ml. It is filed as functional. Particulars: dose 8 µg/ml.

The structures appear in SMILES notation. Calls of active or inactive are those of the source. The rule behind the calls is not given here.

Regarding `O=C(Nc1ccc([N+](=O)[O-])cc1Cl)c1cc(F)ccc1O`, the MIC is > 1020 µg/mL against Pseudomonas aeruginosa [1]; 0.25 µg/mL in the data set on Escherichia coli [7]; 1 µg/mL in the data set with Pseudomonas aeruginosa [8]; 4 µg/mL with Pseudomonas aeruginosa [19]; 1 µg/mL in the data set with Klebsiella pneumoniae [20]. In addition, the Activity entry in data set [2] is “Non-Toxic”; in the data set with Pseudomonas aeruginosa [5], 2.88 log10CFU/ml; in [6], “Non-Toxic”; in data set [9], “Non-Toxic”; in [11], “Non-Toxic”; with Pseudomonas aeruginosa [13], >5 log10CFU/ml. For the same molecule, the Activity with Pseudomonas aeruginosa [15] is recorded as 100%; in data set [16] it was “Non-Toxic”; in data set [17], “Non-Toxic”; in data set [21], “Non-Toxic”. Besides, in data set [3], the mortality at 2 h was found to be 80%. The inhibition result in the data set on Pseudomonas aeruginosa [4] and in the data set with Pseudomonas aeruginosa [22] was “Active” each time. The Survival in the data set with Pseudomonas aeruginosa [10] was determined as 7.31%. Further, the “fold change (FC)” value is listed as 16 in the data set on Acinetobacter baumannii, 256 in the data set on Klebsiella pneumoniae [14] and 16 in the data set on Escherichia coli [23]. Also, in the data set on Pseudomonas aeruginosa [12], the result was Active. For the same molecule, in the data set on Pseudomonas aeruginosa [18], the “fractional inhibitory concentration index (FICI)” value is on record as 0.008.

Usually MIC stands for the least concentration at which growth counts as inhibited.

Source of the values: ChEMBL document CHEMBL5131512, “Novel niclosamide-derived adjuvants elevating the efficacy of polymyxin B against MDR Pseudomonas aeruginosa DK2” (Eur J Med Chem, 2022).
